Structures can show the parent of a compound that is named as a salt.
How the values were obtained:
TLR8 = target: T1, TLR8 (Homo sapiens, UniProt Q9NR97); assay: HEK/293 TLR8 Cell Assay; type: cell-based; conditions: HEK cells, R848 agonist 30 uM final concentration, Steady-Glo readout; read-out: TLR8 potency
T1 construct: expressed in transfected cells; host or cells: HEK/293 reporter cells (NF-kB luciferase)
T1 sequence (Q9NR97 27-1041): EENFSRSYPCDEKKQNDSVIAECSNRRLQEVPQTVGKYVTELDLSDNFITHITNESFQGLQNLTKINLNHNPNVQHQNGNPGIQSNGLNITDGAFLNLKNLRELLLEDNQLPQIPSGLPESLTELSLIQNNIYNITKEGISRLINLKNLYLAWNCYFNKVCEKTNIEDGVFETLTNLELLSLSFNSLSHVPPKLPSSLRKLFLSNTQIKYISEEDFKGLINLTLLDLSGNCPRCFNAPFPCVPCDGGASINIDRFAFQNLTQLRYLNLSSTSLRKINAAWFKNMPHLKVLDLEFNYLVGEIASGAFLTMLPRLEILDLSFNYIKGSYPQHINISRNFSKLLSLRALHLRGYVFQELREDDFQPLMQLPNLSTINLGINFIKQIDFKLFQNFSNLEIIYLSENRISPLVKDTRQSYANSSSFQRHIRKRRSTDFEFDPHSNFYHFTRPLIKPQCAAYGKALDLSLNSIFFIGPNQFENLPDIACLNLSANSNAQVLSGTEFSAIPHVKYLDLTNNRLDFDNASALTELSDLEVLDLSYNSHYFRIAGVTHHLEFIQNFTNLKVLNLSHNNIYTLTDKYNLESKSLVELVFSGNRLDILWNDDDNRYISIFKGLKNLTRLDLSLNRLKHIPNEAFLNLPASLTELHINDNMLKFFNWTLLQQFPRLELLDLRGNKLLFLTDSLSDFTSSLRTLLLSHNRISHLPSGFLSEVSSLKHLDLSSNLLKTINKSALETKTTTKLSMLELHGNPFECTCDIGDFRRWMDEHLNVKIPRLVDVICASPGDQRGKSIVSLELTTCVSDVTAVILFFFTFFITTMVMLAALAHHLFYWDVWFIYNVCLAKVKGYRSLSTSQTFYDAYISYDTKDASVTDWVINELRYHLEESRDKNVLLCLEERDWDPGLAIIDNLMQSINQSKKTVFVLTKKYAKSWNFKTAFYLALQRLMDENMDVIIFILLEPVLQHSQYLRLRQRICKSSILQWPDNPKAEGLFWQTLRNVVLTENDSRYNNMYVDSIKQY
Procedure: (§1) Example 390: HEK/293 TLR8 Cell Assay Into 384 CulturePlates (Corning 3765) was placed 5000 c/w of […] in 30 uL DMEM without Phenol red (gibco #31053-028) and 10% heat inactivated fetal bovine serum, 1% penicillin-streptomycin, and 2 mM L-Glutamine. The cells were incubated for 24 h at 37° C., 10% carbon dioxide and 90% relative humidity. 3 uL of controls, standards, and compounds were dispensed into wells, incubated for 30 min then 3 uL of R848 agonist (30 uM final concentration) was added in 20 mM Hepes. After incubation for 5 hours, they were allowed to stand at room temperature for 15 min. To this was added 10 uL of Steady-Glo substrate reagent and shake assay plate for 5 min at 1500 rpm. The assay plate was allowed to sit for 30 min at room temperature and then the plate was read on EnVision.

TLR7 = target: T2, TLR7 (Homo sapiens, UniProt Q9NYK1); assay: HEK/293 TLR7 Cell Assay; type: cell-based; conditions: TLR7/NFKb HEK cells, R848 agonist 10 uM final concentration, Steady-Glo readout; read-out: TLR7 potency
T2 construct: expressed in transfected cells; host or cells: HEK/293 cells carrying TLR7 and an NF-kB luciferase reporter
T2 sequence (Q9NYK1 27-1049): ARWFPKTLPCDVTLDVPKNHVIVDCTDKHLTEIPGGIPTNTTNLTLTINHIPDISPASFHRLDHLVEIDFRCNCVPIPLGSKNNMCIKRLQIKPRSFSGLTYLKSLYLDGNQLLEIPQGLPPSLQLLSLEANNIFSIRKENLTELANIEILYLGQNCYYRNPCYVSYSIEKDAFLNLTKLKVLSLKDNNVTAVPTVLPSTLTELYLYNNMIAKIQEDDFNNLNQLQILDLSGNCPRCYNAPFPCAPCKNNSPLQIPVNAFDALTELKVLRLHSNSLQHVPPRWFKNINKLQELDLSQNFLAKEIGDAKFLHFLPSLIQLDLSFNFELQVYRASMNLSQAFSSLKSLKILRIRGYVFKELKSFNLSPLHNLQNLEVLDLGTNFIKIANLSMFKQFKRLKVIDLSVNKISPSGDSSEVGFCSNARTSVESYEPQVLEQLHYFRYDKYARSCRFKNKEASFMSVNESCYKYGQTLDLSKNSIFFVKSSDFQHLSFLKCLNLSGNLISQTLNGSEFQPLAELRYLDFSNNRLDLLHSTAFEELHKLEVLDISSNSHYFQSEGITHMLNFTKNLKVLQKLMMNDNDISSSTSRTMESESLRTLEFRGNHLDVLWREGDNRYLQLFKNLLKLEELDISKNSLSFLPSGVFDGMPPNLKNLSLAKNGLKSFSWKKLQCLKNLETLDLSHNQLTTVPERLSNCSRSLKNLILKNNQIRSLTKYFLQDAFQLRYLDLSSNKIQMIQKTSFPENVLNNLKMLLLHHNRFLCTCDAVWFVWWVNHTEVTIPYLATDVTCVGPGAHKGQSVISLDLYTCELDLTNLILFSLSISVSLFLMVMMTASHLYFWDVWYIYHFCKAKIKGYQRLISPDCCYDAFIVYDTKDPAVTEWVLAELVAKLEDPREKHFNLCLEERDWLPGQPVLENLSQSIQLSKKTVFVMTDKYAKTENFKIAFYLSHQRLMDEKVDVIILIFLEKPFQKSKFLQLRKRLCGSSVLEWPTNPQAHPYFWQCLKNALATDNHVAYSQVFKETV
Procedure: as §1, with “389:” for “390:”, “TLR7” for “TLR8”, “[…]” for “1%”, “(10” for “(30”

Row | Structure (SMILES) | IC50 (TLR8) [µM] | IC50 (TLR7) [µM]
1 | CCN(CC)CCO[C@@H]1C[C@H](C)CN(c2ccc(C#N)c3nccnc23)C1 [Example 6, 8-[(3R,5S)-3-[2-(diethylamino)ethoxy]-5-methylpiperidin-1-yl]quinoxaline-5-carbonitrile] | < 0.075 | < 0.075
2 | C[C@H]1C[C@@H](NCCNS(C)(=O)=O)CN(c2ccc(C(F)(F)F)c3ncccc23)C1 [Example 20, N-(2-{[(3R,5S)-5-methyl-1-[8-(trifluoromethyl)quinolin-5-yl]piperidin-3-yl]amino}ethyl)methanesulfonamide] | < 0.075 | < 0.075
3 | C[C@H]1C[C@@H](NC(=O)[C@@H](O)C(C)(C)O)CN(c2ccc(C#N)c3nccnc23)C1 [Example 161, (S)—N-[(3R,5S)-1-(8-Cyano-quinoxalin-5-yl)-5-methyl-piperidin-3-yl]-2,3-dihydroxy-3-methyl-butyramide] | < 0.075 | < 0.075
4 | C[C@H]1C[C@@H](NCCC2CS(=O)(=O)C2)CN(c2ccc(C#N)c3nccnc23)C1 [Example 43, 8-{(3R,5S)-3-[2-(1,1-Dioxo-1lambda6-thietan-3-yl)-ethylamino]-5-methyl-piperidin-1-yl}-quinoxaline-5-carbonitrile] | < 0.075 | < 0.075
5 | N#Cc1ncc(N2C[C@@H](C(F)(F)F)O[C@@H](C(=O)NC[C@]3(F)CCNC3)C2)c2cccnc12 (single isomer, unassigned) [Example 320] | > 0.15 | > 0.15
6 | C[C@@H]1CN(c2cnc(C#N)c3ncccc23)C[C@H](C(=O)NCC2CCCN2C)O1 (stereo partly drawn) [Example 273, (2R,6R)-4-(8-Cyano-[1,7]naphthyridin-5-yl)-6-methyl-morpholine-2-carboxylic acid (1-methyl-pyrrolidin-2-ylmethyl)-amide] | < 0.075 | < 0.075
7 | C[C@@H]1CN(c2cnc(C#N)c3ncccc23)C[C@H](CN2CCC(N3CCOCC3)CC2)O1 [Example 367, 5-[(2R,6S)-2-Methyl-6-(4-morpholin-4-yl-piperidin-1-ylmethyl)-morpholin-4-yl]-[1,7]naphthyridine-8-carbonitrile] | < 0.075 | 0.075 to 0.15
8 | C[C@@H]1CN(c2ccc(C#N)c3nccnc23)C[C@H](C(=O)N2C[C@H](N)C[C@H](C(F)(F)F)C2)O1 [Example 295, 8-[(2R,6R)-2-((3R,5S)-3-Amino-5-trifluoromethyl-piperidine-1-carbonyl)-6-methyl-morpholin-4-yl]-quinoxaline-5-carbonitrile hydrochloride (2)] | < 0.075 | < 0.075
9 | C[C@@H]1CN(c2ccc(C#N)c3nccnc23)C[C@H](C(=O)NC2CCN(CC(F)(F)F)CC2)O1 [Example 247, (2R,6R)-4-(8-Cyano-quinoxalin-5-yl)-6-methyl-morpholine-2-carboxylic acid [1-(2,2,2-trifluoro-ethyl)-piperidin-4-yl]-amide] | < 0.075 | < 0.075
10 | CN1CCC(F)(CNC(=O)[C@H]2CN(c3ccc(C#N)c4nccnc34)C[C@@H](C(F)(F)F)O2)CC1 (single isomer, unassigned) [Example 359] | < 0.075 | < 0.075
11 | C[C@H]1C[C@@H](NCC2(O)CCOCC2)CN(c2cnc(C(F)(F)F)c3ncccc23)C1 [Example 11, 4-{[(3R,5S)-5-Methyl-1-(8-trifluoromethyl-[1,7]naphthyridin-5-yl)-piperidin-3-ylamino]-methyl}-tetrahydro-pyran-4-ol] | > 0.15 | > 0.15
12 | C[C@H]1C[C@@H](NC(=O)NCCN(C)C)CN(c2ccc(C#N)c3nccnc23)C1 [Example 140, 1-[(3R,5S)-1-(8-cyanoquinoxalin-5-yl)-5-methylpiperidin-3-yl]-3-[2-(dimethylamino)ethyl]urea] | < 0.075 | < 0.075
13 | C[C@H]1C[C@@H](NCCC(=O)N2CC(O)C2)CN(c2ccc(C(F)(F)F)c3ncccc23)C1 [Example 53, 1-(3-Hydroxy-azetidin-1-yl)-3-[(3R,5S)-5-methyl-1-(8-trifluoromethyl-quinolin-5-yl)-piperidin-3-ylamino]-propan-1-one] | 0.075 to 0.15 | < 0.075
14 | C[C@@H]1CN(c2cnc(C#N)c3ncccc23)C[C@H](C(=O)NCC2(F)CNC2)O1 [Example 301, (2R,6R)-4-(8-Cyano-[1,7]naphthyridin-5-yl)-6-methyl-morpholine-2-carboxylic acid (3-fluoro-azetidin-3-ylmethyl)-amide] | < 0.075 | < 0.075
15 | CCN(C)CCNC(=O)[C@H]1CN(c2cnc(C#N)c3ncccc23)C[C@@H](C)O1 [Example 270, (2R,6R)-4-(8-Cyano-[1,7]naphthyridin-5-yl)-6-methyl-morpholine-2-carboxylic acid [2-(ethyl-methyl-amino)-ethyl]-amide] | < 0.075 | < 0.075
16 | C[C@H]1CN(c2ccc(C#N)c3nccnc23)C[C@H](CN2CCN(C)CC2)O1 [Example 231, 8-[(2S,6S)-2-Methyl-6-(4-methyl-piperazin-1-ylmethyl)-morpholin-4-yl]-quinoxaline-5-carbonitrile] | < 0.075 | < 0.075
17 | N#Cc1ccc(N2C[C@@H](C(=O)N[C@H]3CNC[C@H]3F)O[C@@H](C(F)(F)F)C2)c2nccnc12 (single isomer, unassigned) [Example 304] | < 0.075 | < 0.075
18 | N#Cc1ncc(N2C[C@@H](C(=O)NC[C@]3(F)CCNC3)O[C@@H](C(F)(F)F)C2)c2cccnc12 (single isomer, unassigned) [Example 319] | < 0.075 | < 0.075
